From patent US20250268856A1, “Pain Relieving Method” (Animal Ethics Pty Ltd, priority 2019, published 2025)
Values joined by “and” are separate entries in the source; they are usually repeats but may differ in a detail not shown here. Equal entries are not always repeated.

How the values were obtained:
[1] = Study 1: porcine plasma profiles of tetracaine and meloxicam applied topically to the castration surgical site; assay type: in vivo
Description: Dose Calculation, Preparation & Administration: Study animals were dosed according to the Treatment Regime outlined in Table 4 below. No preparation of any of the IVPs was performed other than inversion of each container 2-3 times prior to treatment.
Blood Analysis: Blood samples were collected from allocated animals via anterior vena-caval puncture using 21G, 1.5″ needle attached to 10 mL syringes and transferred immediately into 5 mL lithium heparin blood tubes. Blood samples were processed for extraction of plasma on the day of collection, which for each sample was stored in duplicate, frozen (˜−18° C.). Replicate 1 plasma samples were forwarded frozen to a laboratory for tetracaine and meloxicam analyses after the conclusion of the animal phase.
Study animals were dosed according to the application rates detailed in Table 4. No preparation of any of the IVPs was required prior to dosing.
Castration was performed using a sterile scalpel as per the following process: • 1. Piglet to be gently restrained (for a minimum of 30 seconds prior to incision) in Kerble piglet cradle in order to expose the ano-genital region of the piglet. • 2. Only when piglet is settled, incise scrotum (including tunica) with one single transverse incision to expose and exteriorise each testis; • 3. Immediately apply treatment (40% total dose to each side) to coat the exposed spermatic cord and the cut skin edge. […] Wait 30 seconds; • 5. The testis may then be removed by severing the cord as per routine procedure. Remove each testis as per normal procedure. • 6. Apply the remaining 20% of the total dose evenly of the surface of the surgical wound.

[2] = Study 2: motor response scores to the procedure of castration; assay type: in vivo, piglets; settings: during the procedure (castration), versus placebo, topical to open wound
Description: (§1) Study 2: A follow-up study confirmed efficacy of meloxicam analgesic effects when applied to piglets via topical wound application either alone or in combination with tetracaine 2%. Piglets were treated with placebo, meloxicam 0.1%, tetracaine 2% or a combination of tetracaine 2% and meloxicam 1%, otherwise formulated as above, and examined for clinical efficacy via documentation of motor response scores to a) the procedure of castration, and b) pre- and post-operative mechanical sensory testing of the wound site using Von-Frey filament testing.

[3] = Study 2: post-operative mechanical sensory testing of the wound site using Von-Frey filament testing (motor response scores); assay type: in vivo, piglets; settings: versus placebo
Description: as §1

[4] = In-house trials of tetracaine applied directly to the open castration wound; assay type: in vivo, piglets; settings: applied to open castration wound 20 seconds prior to severing cordal tissues, 1 ml/kg of 2% or 5% solution
Excerpt: Tetracaine is a rapid onset surface anaesthetic, that is rapidly metabolised by plasma-esterases, such that may induce high potency local effects with minimal systemic effects. […] Topical wound application formulations were thus developed to examine the potential for systemic NSAID analgesic drug (meloxicam) delivery via topical wound application, applied alone, or combined with topical local anaesthetic (tetracaine) to the castration wound in piglets. Topical wound application formulations were developed containing meloxicam alone, tetracaine alone and combinations of meloxicam and tetracaine to examine systemic absorption and clinical effects.

[5] = male, pig, in vivo

## Cc1cnc(NC(=O)C2=C(O)c3ccccc3S(=O)(=O)N2C)s1 [Meloxicam]
[1]; 15 min post-treatment, individual piglets, topical to castration wound
  Meloxicam concentration in porcine plasma: 144.8 ng/mL and 119.8 ng/mL and 81.8 ng/mL and 88.2 ng/mL
[1]; 30 min post-treatment, individual piglets, topical to castration wound
  Meloxicam concentration in porcine plasma: 166.0 ng/mL and 94.6 ng/mL and 101.3 ng/mL and 104.8 ng/mL
[1]; 1 hr post-treatment, individual piglets, topical to castration wound
  Meloxicam concentration in porcine plasma: 102.9 ng/mL and 118.0 ng/mL
[1]; 2 hr post-treatment, individual piglets, topical to castration wound
  Meloxicam concentration in porcine plasma: 126.7 ng/mL and 238.9 ng/mL
[1]; 4 hr post-treatment, individual piglets, topical to castration wound
  Meloxicam concentration in porcine plasma: 100.9 ng/mL and 458.7 ng/mL and 63.3 ng/mL and 230.0 ng/mL and 244.6 ng/mL and 113.2 ng/mL
[1]; group level (FIG. 4)
  Sustained plasma levels of meloxicam: 100 to 200 ng/mL
[1]; male, pig, plasma, topical, 15 min post-treatment, individual piglets, topical to castration wound
  concentration at 15 min: 86.9 ng/mL
[1]; male, pig, plasma, topical, 30 min post-treatment, individual piglets, topical to castration wound
  concentration at 30 min: 109 ng/mL
[1]; male, pig, plasma, topical, 1 hr post-treatment, individual piglets, topical to castration wound
  concentration at 1 hr: 190 ng/mL
[1]; male, pig, plasma, topical, 2 hr post-treatment, individual piglets, topical to castration wound
  concentration at 2 hr: 126 ng/mL
[1]; post-treatment, group level (FIGS. 4, 5)
  Time of peak plasma meloxicam level: 4 h

## CCCCNc1ccc(C(=O)OCCN(C)C)cc1 [Tetracaine]
[1]; male, pig, in vivo
  Time of peak plasma tetracaine level: 1 h
[2]
  Motor response scores: significant reduction
[3]; 1 minute following the procedure
  Motor response scores: significant reduction
[3]; 1 hour following the procedure
  Motor response scores: anaesthetic effects were still evident
[3]; 12 hours following the procedure
  Motor response scores: rebound hyperaesthesia
[4]
  Pain during castration and in the first minutes and 1-2 hours following: effective to ameliorate pain

## CCCCN1CCCCC1C(=O)Nc1c(C)cccc1C (stereo not drawn) [bupivacaine]
[5]
  Period plasma levels remained at those levels: 24 h
